Laboratory results: patent publication US12077503B2, “Substituted cyclic amides and their use as herbicides” (FMC CORPORATION, priority 2015, dated 2024)

Assays:
Assay type in all cases: in vivo
corn (Zea mays) [1] = experiment: Test G Post-Emergence Protocol; conditions: Zea mays, post-emergence, 312 h
Outline: (§1)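 Eight days post-sowing, plants received a spray of test compound (acetone/water 50:50, 0.5% Tween 20) at 15.625, 62.5 or 250 g/ha. Glasshouse regime thereafter: 24/16 °C, 14 h light, 65% humidity. Assessment after 13 days on a 0–100 damage scale.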

[2] = test system: velvetleaf (Abutilon theophrasti); experiment: Test G Post-Emergence Protocol; conditions: Abutilon theophrasti, post-emergence, 312 h
Outline: as §1

[3] = test system: redroot pigweed (Amaranthus retroflexus); experiment: Test G Post-Emergence Protocol; conditions: Amaranthus retroflexus, post-emergence, 312 h
Outline: as §1

[4] = test system: giant foxtail (Setaria faberi); experiment: Test G Post-Emergence Protocol; conditions: Setaria faberi, post-emergence, 312 h
Outline: as §1

[5] = test system: barnyardgrass (Echinochloa crus-galli); experiment: Test G Post-Emergence Protocol; conditions: Echinochloa crus-galli, post-emergence, 312 h
Outline: as §1

[6] = test system: ivy-leaved morning glory (Ipomoea hederacea); experiment: Test G Post-Emergence Protocol; conditions: Ipomoea, post-emergence, 312 h
Outline: as §1

corn (Zea mays) [7] = experiment: Test G Pre-Emergence Protocol; conditions: Zea mays, pre-emergence, 312 h, evaluated after 13 days
Outline: (§2)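 Test compound in 0.5% Tween 20 acetone/water (50:50) was applied at three rates (15.625, 62.5, 250 g/ha) to soil sown one day earlier. After 13 days plants were scored for injury, where 0 means unaffected and 100 means completely damaged.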

[8] = test system: velvetleaf (Abutilon theophrasti); experiment: Test G Pre-Emergence Protocol; conditions: Abutilon theophrasti, pre-emergence, 312 h, evaluated after 13 days
Outline: as §2

[9] = test system: redroot pigweed (Amaranthus retroflexus); experiment: Test G Pre-Emergence Protocol; conditions: Amaranthus retroflexus, pre-emergence, 312 h, evaluated after 13 days
Outline: as §2

[10] = test system: giant foxtail (Setaria faberi); experiment: Test G Pre-Emergence Protocol; conditions: Setaria faberi, pre-emergence, 312 h, evaluated after 13 days
Outline: as §2

[11] = test system: barnyardgrass (Echinochloa crus-galli); experiment: Test G Pre-Emergence Protocol; conditions: Echinochloa crus-galli, pre-emergence, 312 h, evaluated after 13 days
Outline: as §2

[12] = test system: ivy-leaved morning glory (Ipomoea hederacea); experiment: Test G Pre-Emergence Protocol; conditions: Ipomoea, pre-emergence, 312 h, evaluated after 13 days
Outline: as §2

CN1C[C@@H](c2ccc(C(F)(F)F)cc2)[C@H](C(=O)Nc2cn[nH]c2)C1=O (racemic) [Compound 1646]
10%: pest or weed control at 62.5 g/ha ([4]; 62.5 g ai/ha, evaluated after 13 days, read-out: Foxtail, Giant damage rating (100=total damage to plant; 0=no damage to plant))
20%: pest or weed control at 250 g/ha ([4]; 250 g ai/ha, evaluated after 13 days, read-out: damage to plant, Foxtail, Giant (100=total damage to plant; 0=no damage to plant))
0%: plant injury at 15.625 g/ha (corn (Zea mays) [1]; 15.625 g ai/ha, evaluated after 13 days (100=total damage to plant; 0=no damage to plant), read-out: Corn damage rating) | plant injury at 62.5 g/ha (corn (Zea mays) [1]; 62.5 g ai/ha, evaluated after 13 days, read-out: Corn damage rating (100=total damage to plant; 0=no damage to plant)) | plant injury at 250 g/ha (corn (Zea mays) [1]; 250 g ai/ha, evaluated after 13 days, read-out: damage to plant, Corn (100=total damage to plant; 0=no damage to plant)) | pest or weed control at 15.625 g/ha ([2]; 15.625 g ai/ha, evaluated after 13 days (100=total damage to plant; 0=no damage to plant), read-out: Velvetleaf damage rating) | pest or weed control at 62.5 g/ha ([2]; 62.5 g ai/ha, evaluated after 13 days, read-out: Velvetleaf damage rating (100=total damage to plant; 0=no damage to plant)) | pest or weed control at 250 g/ha ([2]; 250 g ai/ha, evaluated after 13 days, read-out: damage to plant, Velvetleaf (100=total damage to plant; 0=no damage to plant)) | pest or weed control at 15.625 g/ha ([3]; 15.625 g ai/ha, evaluated after 13 days (100=total damage to plant; 0=no damage to plant), read-out: Pigweed, Redroot damage rating) | pest or weed control at 62.5 g/ha ([3]; 62.5 g ai/ha, evaluated after 13 days, read-out: Pigweed, Redroot damage rating (100=total damage to plant; 0=no damage to plant)) | pest or weed control at 250 g/ha ([3]; 250 g ai/ha, evaluated after 13 days, read-out: damage to plant, Pigweed, Redroot (100=total damage to plant; 0=no damage to plant)) | pest or weed control at 15.625 g/ha ([4]; 15.625 g ai/ha, evaluated after 13 days (100=total damage to plant; 0=no damage to plant), read-out: Foxtail, Giant damage rating) | pest or weed control at 15.625 g/ha ([5]; 15.625 g ai/ha, evaluated after 13 days (100=total damage to plant; 0=no damage to plant), read-out: Barnyardgrass damage rating) | pest or weed control at 62.5 g/ha ([5]; 62.5 g ai/ha, evaluated after 13 days, read-out: Barnyardgrass damage rating (100=total damage to plant; 0=no damage to plant)) | pest or weed control at 250 g/ha ([5]; 250 g ai/ha, evaluated after 13 days, read-out: damage to plant, Barnyardgrass (100=total damage to plant; 0=no damage to plant)) | pest or weed control at 15.625 g/ha ([6]; 15.625 g ai/ha, evaluated after 13 days (100=total damage to plant; 0=no damage to plant), read-out: Morningglory, Ivy-leaved damage rating) | pest or weed control at 62.5 g/ha ([6]; 62.5 g ai/ha, evaluated after 13 days, read-out: Morningglory, Ivy-leaved damage rating (100=total damage to plant; 0=no damage to plant)) | pest or weed control at 250 g/ha ([6]; 250 g ai/ha, evaluated after 13 days, read-out: damage to plant, Morningglory, Ivy-leaved (100=total damage to plant; 0=no damage to plant)) | plant injury at 15.625 g/ha (corn (Zea mays) [7]; 15.625 g ai/ha, read-out: Corn damage rating (100=total damage to plant; 0=no damage to plant)) | plant injury at 62.5 g/ha (corn (Zea mays) [7]; 62.5 g ai/ha, 100=total damage to plant, 0=no damage to plant, read-out: plant damage rating, Corn) | plant injury at 250 g/ha (corn (Zea mays) [7]; 250 g ai/ha, read-out: Corn damage rating (100=total damage to plant; 0=no damage to plant)) | pest or weed control at 15.625 g/ha ([8]; 15.625 g ai/ha, read-out: Velvetleaf damage rating (100=total damage to plant; 0=no damage to plant)) | pest or weed control at 62.5 g/ha ([8]; 62.5 g ai/ha, 100=total damage to plant, 0=no damage to plant, read-out: plant damage rating, Velvetleaf) | pest or weed control at 250 g/ha ([8]; 250 g ai/ha, read-out: Velvetleaf damage rating (100=total damage to plant; 0=no damage to plant)) | pest or weed control at 15.625 g/ha ([9]; 15.625 g ai/ha, read-out: Pigweed, Redroot damage rating (100=total damage to plant; 0=no damage to plant)) | pest or weed control at 62.5 g/ha ([9]; 62.5 g ai/ha, 100=total damage to plant, 0=no damage to plant, read-out: plant damage rating, Pigweed, Redroot) | pest or weed control at 250 g/ha ([9]; 250 g ai/ha, read-out: Pigweed, Redroot damage rating (100=total damage to plant; 0=no damage to plant)) | pest or weed control at 15.625 g/ha ([10]; 15.625 g ai/ha, read-out: Foxtail, Giant damage rating (100=total damage to plant; 0=no damage to plant)) | pest or weed control at 62.5 g/ha ([10]; 62.5 g ai/ha, 100=total damage to plant, 0=no damage to plant, read-out: plant damage rating, Foxtail, Giant) | pest or weed control at 250 g/ha ([10]; 250 g ai/ha, read-out: Foxtail, Giant damage rating (100=total damage to plant; 0=no damage to plant)) | pest or weed control at 15.625 g/ha ([11]; 15.625 g ai/ha, read-out: Barnyard grass damage rating (100=total damage to plant; 0=no damage to plant)) | pest or weed control at 62.5 g/ha ([11]; 62.5 g ai/ha, 100=total damage to plant, 0=no damage to plant, read-out: plant damage rating, Barnyardgrass) | pest or weed control at 250 g/ha ([11]; 250 g ai/ha, read-out: Barnyardgrass damage rating (100=total damage to plant; 0=no damage to plant)) | pest or weed control at 15.625 g/ha ([12]; 15.625 g ai/ha, read-out: Morning-glory, Ivy-leaved damage rating (100=total damage to plant; 0=no damage to plant)) | pest or weed control at 62.5 g/ha ([12]; 62.5 g ai/ha, 100=total damage to plant, 0=no damage to plant, read-out: plant damage rating, Morningglory, Ivy-leaved) | pest or weed control at 250 g/ha ([12]; 250 g ai/ha, read-out: Morningglory, Ivy-leaved damage rating (100=total damage to plant; 0=no damage to plant))
